# US8173863B2, “Sucrose biosensors and methods of using the same” (Carnegie Institution of Washington, priority 2005, dated 2012)
# How the values were obtained:
# [1] = test system: Alicyclobacillus acidocaldarius maltose uptake; conditions: cited from earlier work
# [2] = target: Agrobacterium tumefaciens ThuE (AtThuE) sucrose binding protein carrying N192D (SEQ ID NO: 2) fused between ECFP and EYFP, sensor FLIPsuc4μ (FLIPsuc), wt (indic (Agrobacterium fabrum, UniProt A9CF11, N212D)); assay: in vitro FRET titration of purified sensor FLIPsuc4μ; conditions: for binding (extent relative to sucrose): 5× Kd (20 μM), FRET micro plate assay (FIG. 4); for Δratio (maximum ratio change): in vitro, no binding to saturated binding; for recognition (binding): even after addition of higher sugar concentrations (50× Kd); for affinity relative to that for sucrose: FIG. 1C titration curves
# Source text: (§1) Because the maltose/trehalose/sucrose binding protein from Agrobacterium tumefaciens (AtThuE) is 78.9% identical over predicted mature region of the SmThuE protein (SEQ ID NO: 2) and is 21.4% homologous to the maltose binding protein from E. coli (malE), we attempted to clone the AtThuE binding protein. To isolate the gene, a PCR product from genomic Agrobacterium tumefaciens (strain C58C1) DNA encoding mature AtThuE without signal sequence and stop codon was cloned into the KpnI site between ECFP and EYFP genes (FIG. 1A). The chimeric gene was inserted into pRSET (Invitrogen) and transferred to E. coli BL21(DE3)Gold (Stratagene). […] It is unknown whether this difference corresponds to a mutation or natural variation. Since N192D was outside the binding pocket and since AtThuE carrying the mutation was functional as a sugar sensor (see Table 1), all further experiments were carried out with the nanosensor named FLIPsuc4μ carrying the mutation N192D. FLIPsuc proteins were extracted from BL21(DE3)gold and purified as described (Fehr et al. 2002).
# (§2) A DNA fragment encoding the mature Agrobacterium tumefaciens maltose/trehalose/sucrose BP protein was fused between the ECFP and EYFP sequences as described above. The chimeric gene was expressed in E. coli and the protein product purified and assayed for substrate specificity.
# (§3) Substrate titration curves and substrate specificity analysis were performed on Safire (Tecan) fluorometer. ECFP was excited at 433 nm and emission was set to 485 nm and 528 nm for ECFP and EYFP, respectively (bandwidth 12 nm). All in vitro analyses were performed in 20 mM MOPS buffer at pH 7. FRET was determined as EYFP-ECFP emission intensity ratio. Using the change in ratio upon ligand binding, binding constants (Kd) were determined by fitting substrate titration curves to equation 1: S=1−(r−rmin)(rmax−rmin)=[S]b/[P]t=n[S]/(Kd+[S]), where [S] is substrate concentration; [S]b, concentration of bound substrate; n, number of binding sites; [P]t, total concentration of binding protein; r, ratio; rmin, minimum ratio in absence of ligand; rmax, maximum ratio at saturation. Hill coefficients were determined using Hill equation 2: S=(n[S]^n)/(Kd+[S]^n).
# (§4) SmThuE is mainly functioning as a trehalose and maltose binding protein. Sucrose is thought to be transported to a lesser extent. FLIPsuc4μ was therefore incubated with trehalose, maltose and other related sugars to test for its binding capacities. Substrate-induced conformational changes were measured using FRET in micro plate assays. […] Maltose and glucose were chosen for further analysis of FLIPsuc4μ and its mutants since they are important sugars in plants and might therefore interfere with sucrose measurements in vivo. […] Most mutants show similar patterns with higher affinity for maltose than sucrose. FLIPsuc-10μ is the most significant example with an 83 times higher affinity for maltose than sucrose (Table 1). The D115 mutants both show the highest affinity for maltose compared to sucrose and […], but to a different extent.
# [3] = target: Agrobacterium tumefaciens AtThuE sensor FLIPsuc4μ variant D115E (FLIPsuc3m, FLIPsucD115E) (Agrobacterium fabrum, UniProt A9CF11, D135E/N212D); assay: in vitro FRET titration of affinity mutant FLIPsuc3m; type: binding; conditions: for Δratio (delta ratio): no binding to saturated binding
# Procedure: as §3
# (§5) To expand the dynamic range of the sucrose sensor, site directed mutagenesis was used as described above to lower the binding affinity of the sucrose binding domain. Affinity mutants of FLIPsuc4μ were generated. Alignment together with modeling of AtThuE with maltose binding proteins that have been crystallized helped predict residues important for ligand binding. […] Mutant forms carrying substitutions F113A, D115A, D115E, D115N, W244A, Y246A and W283A were generated using Kunkel mutagenesis (Kunkel et al. 1991) in the mutant background of FLIPsuc41t. The affinity mutants were designated as FLIPsucF113A, FLIPsucW283A, FLIPsucD115A, FLIPsucD115E, FLIPsucY246A, and FLIPsucW244A. All six mutants have lower affinities for sucrose than that of FLIPsuc4μ, with a Kd value varying from 10 μM to the higher mM range (Table 1). The starting ratio between EYFP and ECFP ranges from 1.4 to close to 2.0, which is also similar to what has been seen in other sugar sensors (FLIPmal, FLIPglu and FLIPrib). Introducing substitution F113A into the ThuE moiety of FLIPsuc4μ produced FLIPsuc10μ, which has a binding constant (Kd) of 10 μM for sucrose, thus providing a range for sucrose quantification between at least 1 μM and 90 μM (Table 1).
# [4] = target: Agrobacterium tumefaciens AtThuE sensor FLIPsuc4μ variant D115N (Agrobacterium fabrum, UniProt A9CF11, D135N/N212D); assay: FRET ratio change of D115N mutant; type: binding
# Procedure: as §3
# To expand the dynamic range of the sucrose sensor, site directed mutagenesis was used as described above to lower the binding affinity of the sucrose binding domain. Affinity mutants of FLIPsuc4μ were generated. Alignment together with modeling of AtThuE with maltose binding proteins that have been crystallized helped predict residues important for ligand binding. […]
# [5] = target: Agrobacterium tumefaciens ThuE (AtThuE) sucrose binding protein carrying N192D (SEQ ID NO: 2) fused between ECFP and EYFP, sensor FLIPsuc4μ (FLIPsuc), wt (indicator SEQ ID NO: 4) (Agrobacterium fabrum, UniProt A9CF11, N212D); assay: in vitro FRET titration of purified sensor FLIPsuc4μ
# Source text: as §1, §2, §3, §4
# [6] = target: Agrobacterium tumefaciens AtThuE sensor FLIPsucW283A with linker shortened by 18 amino acids (FLIPsucW283A-18AA, FLIPThuEW283A-18AA) (Agrobacterium fabrum, UniProt A9CF11, N212D/W303A); assay: FRET ratio change of short-linker sensor FLIPsucW283A-18AA; type: binding; conditions: FIG. 3
# Procedure: as §3
# In an attempt to improve the delta ratio of the sucrose sensor the sensor containing the W283A mutation was cloned into a construct with a shorter linker sequence between the GFP variants and the binding protein. Deuschle et al. (2005) has shown that the length of the linker sequence plays a major role in the maximum change in ratio. A construct corresponding to FLIPglu600μΔ5 was constructed which gives a sucrose sensor whose linker was shortened by 18 amino acids (FLIPsucW283A-18AA). […]
# [7] = target: Agrobacterium tumefaciens AtThuE sensor FLIPsuc4μ variant D115A (FLIPsuc1m, FLIPsucD115A) (Agrobacterium fabrum, UniProt A9CF11, D135A/N212D); assay: in vitro FRET titration of affinity mutant FLIPsuc1m; type: binding; conditions: for Δratio (delta ratio): no binding to saturated binding
# Procedure: as §3, §5
# [8] = target: Agrobacterium tumefaciens AtThuE sensor FLIPsuc4μ variant F113A (FLIPsuc10μ, FLIPsucF113A) (Agrobacterium fabrum, UniProt A9CF11, F133A/N212D); assay: in vitro FRET titration of affinity mutant FLIPsuc10μ; type: binding; conditions: for Δratio (change in ratio): in vitro, no binding to saturated binding
# Procedure: as §3, §5
# [9] = target: Agrobacterium tumefaciens AtThuE sensor FLIPsuc4μ variant W283A (FLIPsuc88μ, FLIPsucW283A) (Agrobacterium fabrum, UniProt A9CF11, N212D/W303A); assay: in vitro FRET titration of affinity mutant FLIPsuc88μ; type: binding; conditions: for Kd / Δratio: in vitro; for Δratio: no binding to saturated binding
# Procedure: as §3, §5
# [10] = target: Agrobacterium tumefaciens AtThuE sensor FLIPsuc4μ variant W244A (FLIPsuc46m, FLIPsucW244A) (Agrobacterium fabrum, UniProt A9CF11, N212D/W264A); assay: in vitro FRET titration of affinity mutant FLIPsuc46m; type: binding; conditions: for Δratio: in vitro, no binding to saturated binding
# Procedure: as §3, §5
# [11] = target: Agrobacterium tumefaciens AtThuE sensor FLIPsuc4μ variant Y246A (FLIPsuc15m, FLIPsucY246A) (Agrobacterium fabrum, UniProt A9CF11, N212D/Y266A); assay: in vitro FRET titration of affinity mutant FLIPsuc15m; type: binding; conditions: for Δratio: in vitro, no binding to saturated binding
# Procedure: as §3, §5
# [12] = target: Alicyclobacillus acidocaldarius maltose binding protein (AaMalE); conditions: cited from earlier work
# [13] = 20 mM MOPS pH 7, FRET titration
molecule,measurement,setting,value
C[C@H]1O[C@H](O[C@H]2[C@H](O)[C@@H](O)[C@@H](O[C@H]3[C@H](O)[C@@H](O)C(O)O[C@@H]3CO)O[C@@H]2CO)[C@H](O)[C@@H](O)[C@@H]1N[C@H]1C=C(CO)[C@@H](O)[C@H](O)[C@H]1O (some centres unmarked) [acarbose],inhibition of uptake of radiolabeled maltose,[1],inhibited
OC[C@H]1O[C@H](O[C@H]2O[C@H](CO)[C@@H](O)[C@H](O)[C@H]2O)[C@H](O)[C@@H](O)[C@@H]1O [trehalose],binding (extent relative to sucrose),[2],to the same extent or better than sucrose
OC[C@H]1O[C@@](CO)(O[C@H]2O[C@H](CO)[C@@H](O)[C@H](O)[C@H]2O)[C@@H](O)[C@@H]1O [sucrose],Kd,[3]; [13],2870 µM
same,Kd,[3]; FRET titration,2900 µM
same,Δratio (delta ratio),[3],~0.4
same,Δratio (delta ratio),[3]; listed as Sucrose,0.36
same,change in ratio upon addition of sucrose,[4],no longer seen
same,Kd,[5],3.7 µM
same,change in FRET on titration,"[2]; concentration-dependent, FIG. 1B",concentration-dependent decrease in FRET
same,Δratio (maximum ratio change),[2]; listed as Sucrose,0.18
same,Hill coefficient,"[2]; sucrose titration, pH 7",1.04
same,ratio change relative to original construct (FLIPsucW283A),[6],3 fold
same,Kd,[7]; [13],1350 µM
same,Kd,[7]; FRET titration,1400 µM
same,Δratio (delta ratio),[7],at least 0.6
same,Δratio (delta ratio),[7]; listed as Sucrose,0.68
same,Kd,[8],10 µM
same,Δratio (change in ratio),[8],0.1-0.15
same,Δratio (change in ratio),[8]; listed as Sucrose,0.12
same,Kd,[9]; [13],88 µM
same,Δratio,[9],0.29
same,affinity for sucrose relative to maltose,[9]; ratio of Kd,three times higher than for maltose
same,Kd,[10],46200 µM
same,Δratio,[10],0.4
same,Kd,[11],14600 µM
same,Δratio,[11],0.14
OC[C@H]1O[C@@H](O[C@H]2[C@H](O)[C@@H](O)C(O)O[C@@H]2CO)[C@H](O)[C@@H](O)[C@@H]1O (some centres unmarked) [cellobiose],recognition (binding),[2],not recognized
OC[C@H]1O[C@H](O[C@H]2[C@H](O)[C@@H](O)[C@@H](O[C@H]3[C@H](O)[C@@H](O)[C@@H](O[C@H]4[C@H](O)[C@@H](O)C(O)O[C@@H]4CO)O[C@@H]3CO)O[C@@H]2CO)[C@H](O)[C@@H](O)[C@@H]1O (some centres unmarked) [maltotetraose],inhibition of uptake of radiolabeled maltose,[1],inhibited
OC[C@H]1O[C@H](OC[C@H]2OC(O)(CO)[C@@H](O)[C@@H]2O)[C@H](O)[C@@H](O)[C@@H]1O (some centres unmarked) [palatinose],binding (extent relative to sucrose),[2],to lesser extent
OCC1(O)OC[C@@H](O)[C@@H](O)[C@@H]1O (some centres unmarked) [Fructose],recognition (binding),[2],not recognized
OC[C@H]1OC(O)(CO)[C@@H](O[C@H]2O[C@H](CO)[C@@H](O)[C@H](O)[C@H]2O)[C@@H]1O (some centres unmarked) [turanose],binding (extent relative to sucrose),[2],to the same extent or better than sucrose
OC[C@H]1O[C@H](O[C@H]2[C@H](O)[C@@H](O)C(O)O[C@@H]2CO)[C@H](O)[C@@H](O)[C@@H]1O (some centres unmarked) [maltose],Kd,[12],1.5 µM
same,Kd,[3]; [13],1530 µM
same,Kd,[3]; FRET titration,1500 µM
same,Δratio (delta ratio),[3],0.39
same,Kd,[5],0.23 µM
same,binding (extent relative to sucrose),[2],to the same extent or better than sucrose
same,affinity relative to that for sucrose,[2],higher
same,Δratio (maximum ratio change),[2],0.21
same,Kd,[7]; [13],51 µM
same,Δratio (delta ratio),[7],0.37
same,Kd,[8],0.12 µM
same,Δratio (change in ratio),[8],0.12
same,Kd,[9]; [13],265 µM
same,Δratio,[9],0.25
same,Kd,[10],26500 µM
same,Δratio,[10],0.42
same,Kd,[11],56 µM
same,Δratio,[11],0.14
cyclodextrins,inhibition of uptake of radiolabeled maltose,[1],inhibited
OC[C@H]1OC(O)[C@H](O)[C@@H](O)[C@@H]1O (some centres unmarked) [glucose],Kd,[3]; [13],9110 µM
same,Kd,[3]; FRET titration,9100 µM
same,Δratio (delta ratio),[3],0.44
same,Kd,[5],27 µM
same,binding (extent relative to sucrose),[2],to lesser extent
same,affinity relative to that for sucrose,[2],in the same range as that for sucrose
same,Δratio (maximum ratio change),[2],0.18
same,Kd,[7]; [13],16200 µM
same,Kd,[7]; FRET titration,16000 µM
same,Δratio (delta ratio),[7],0.50
same,Kd,[8],106 µM
same,Δratio (change in ratio),[8],0.12
same,Kd,[9]; [13],7210 µM
same,Kd,[9]; FRET titration,7200 µM
same,Δratio,[9],0.21
same,Kd,[11],554 µM
same,Δratio,[11],0.07
OC[C@H]1OC(O)[C@H](O)[C@@H](O)[C@H]1O (some centres unmarked) [galactose],recognition (binding),[2],not recognized
